Read-outs that look alike come from different tables or passages of the source.
Columns and labels:
[1] = target: T1, 5-LOX (Soybean lipoxygenase) (Glycine max, UniProt P08170); assay: Lipoxygenase inhibitory activity assay; type: biochemical
T1 construct: purchased Cayman Chemical Co. 760700
T1 sequence (P08170 1-839): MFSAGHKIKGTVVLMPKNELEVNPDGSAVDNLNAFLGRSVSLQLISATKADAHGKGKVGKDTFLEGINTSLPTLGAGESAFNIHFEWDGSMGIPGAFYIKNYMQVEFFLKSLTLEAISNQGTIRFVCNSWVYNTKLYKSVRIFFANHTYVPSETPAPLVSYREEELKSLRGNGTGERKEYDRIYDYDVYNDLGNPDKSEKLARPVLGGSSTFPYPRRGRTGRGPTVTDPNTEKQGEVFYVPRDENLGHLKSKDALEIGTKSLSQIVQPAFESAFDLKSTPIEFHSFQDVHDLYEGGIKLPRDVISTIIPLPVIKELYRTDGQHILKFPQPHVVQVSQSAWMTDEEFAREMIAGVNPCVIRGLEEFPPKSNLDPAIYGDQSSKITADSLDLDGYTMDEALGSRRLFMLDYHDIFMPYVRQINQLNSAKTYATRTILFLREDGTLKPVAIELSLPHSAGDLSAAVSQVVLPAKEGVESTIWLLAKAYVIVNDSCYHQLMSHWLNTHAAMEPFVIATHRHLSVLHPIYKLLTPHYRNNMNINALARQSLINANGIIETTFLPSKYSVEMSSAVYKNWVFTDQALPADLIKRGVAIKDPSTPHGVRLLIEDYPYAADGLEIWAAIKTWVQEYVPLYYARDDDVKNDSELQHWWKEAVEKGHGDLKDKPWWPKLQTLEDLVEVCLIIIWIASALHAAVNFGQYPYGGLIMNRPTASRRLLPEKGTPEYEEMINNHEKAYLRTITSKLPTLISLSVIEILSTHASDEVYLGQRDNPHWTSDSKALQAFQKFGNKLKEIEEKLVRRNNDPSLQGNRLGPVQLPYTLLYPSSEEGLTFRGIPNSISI
Protocol: 10 µL of the compound of each concentration was mixed with 90 µL 5-LOX (Soybean lipoxygenase in assay buffer) in the specified wells of the 96-well plate. Two wells containing assay buffer and AA acted as blanks whereas four wells, each carrying enzyme and AA, were positive controls. 10 µL AA was added to each test well and the plate was shaken for 5 min. Chromogen (100 µL) was added to each well and the plate was again shaken for 5 min. The absorbance of each well at 490 nm was recorded on microplate scanning spectrophotometer. As per the protocol given with the assay kit, the 5-LOX inhibitory activity for each compound at each concentration was determined using the mean of the two values (duplicate experiments) with deviation <5%.

COX-1 = target: T2, COX-1 (Ovis aries, UniProt P05979); assay: COX-1 enzyme immunoassay (Cayman inhibitor screening kit); type: biochemical
T2 construct: purchased Cayman Chemical Co. 560131
T2 sequence (P05979 25-600): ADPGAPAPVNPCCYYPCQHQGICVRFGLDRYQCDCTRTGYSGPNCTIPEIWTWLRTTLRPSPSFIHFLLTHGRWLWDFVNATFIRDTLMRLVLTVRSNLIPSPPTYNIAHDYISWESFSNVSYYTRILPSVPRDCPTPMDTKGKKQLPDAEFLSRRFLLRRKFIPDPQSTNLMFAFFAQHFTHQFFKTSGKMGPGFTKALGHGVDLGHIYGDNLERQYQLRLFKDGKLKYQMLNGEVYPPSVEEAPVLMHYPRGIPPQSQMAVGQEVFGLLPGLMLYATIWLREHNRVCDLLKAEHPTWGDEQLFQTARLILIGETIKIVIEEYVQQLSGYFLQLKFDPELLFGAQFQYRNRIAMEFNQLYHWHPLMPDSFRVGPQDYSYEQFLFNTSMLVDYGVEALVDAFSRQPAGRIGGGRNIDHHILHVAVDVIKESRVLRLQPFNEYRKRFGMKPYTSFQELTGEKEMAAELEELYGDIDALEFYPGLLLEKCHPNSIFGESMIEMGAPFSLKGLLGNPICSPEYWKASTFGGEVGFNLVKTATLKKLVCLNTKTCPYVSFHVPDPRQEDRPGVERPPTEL
Protocol: Principally, the catalytic activity of COX-1/2 is slowed down in the presence of its inhibitor and quantitatively, it is inversely proportional to the amount of prostaglandin produced in the presence of inhibitor.
The enzyme inhibition screening assay kits for COX-1/2 and 5-LOX with item no. […] The 100% initial activity tubes for the two enzymes contained 10 µL heme and 10 µL of the enzyme in 160 µL reaction buffer. Then 10 µL inhibitor (compound of above mentioned concentrations) was added to the inhibitor tubes for the two enzymes and 10 µL of vehicle (DMSO) was added to 100% initial activity and background tubes. All the tubes were incubated for 10 min at 37 °C and the reaction was started by adding 10 µL arachidonic acid to all the reaction tubes. After incubation of the reaction vials for 2 min at 37 °C, the enzyme catalysis was stopped by adding 30 µL saturated stannous chloride solution to each test tube and solutions were kept at 0–4 °C. For EIA (enzyme immunoassay) procedure: the EIA buffers and assay specific reagents were prepared as written in the manual. In the COX dilutions, two test tubes labelled as BC1 and BC2 were taken to prepare background samples. Each tube contained 990 µL of EIA buffer and 10 µL of background COX-1 for BC1 and 10 µL of background COX-2 for BC2. The samples for 100% initial activity were diluted in three vials labelled IA1, IA2 and IA3 for each enzyme. IA1 contained 990 µL EIA buffer and 10 µL enzyme, IA2 has 950 µL buffer and 50 µL solution of IA1 (1:2000 dilution of original sample) and IA3 carried 500 µL of buffer and 500 µL of IA2 solution (1:4000 dilution of original sample). Each solution was thoroughly mixed. Solutions of IA2 and IA3 were used for the assaying. […] C2 contained 950 µL buffer and 50 µL solution of C1 (1:2000 dilution of original sample) and vial C3 was charged with 500 µL buffer and 500 µL solution from C2 (1: 4000 dilution of original sample). Only C2 and C3 were run in the assay. After all the reaction dilutions, these were then subjected to 96 wells plate. The wells were divided as: 2 blank wells, 2 NSB wells (non-specific binding), 3 B0 wells (maximum binding), one TA well (total activity), 16 wells for standards (S1–S8 in repeat), 2 BC1 and 2 BC2 wells. Compounds (inhibitors) were put in all the other wells. The sequence for the addition of reagents onto the plate was as per the protocol of the assay kit. […] For developing the plate; it was emptied and washed with wash buffer 5 times followed by the addition of 200 µL Ellman’s reagent to each well. 5 µL tracer was added to the TA well. Then the plate was covered and left for 60 mins for development in dark. After the respective time period the cover was removed and the plate was read at 420 nm. %B/Bo (i.e. % sample or maximum bound) value for standards S1-S8 and each sample was determined from the absorbance values obtained according to the calculation given in the protocol. The amount of prostaglandins formed during the enzymatic reaction was calculated from the values of %B/Bo for all the compounds at all concentrations with the help of the standard curve (plotted between %B/Bo of standards and raw data given in the protocol). Then the prostaglandin formed at each concentration of all the compounds and percentage inhibition values were calculated. The graph between percent inhibition of the enzyme and corresponding concentration of the compound provided IC50 values for the compounds.

[2] = soybean lipoxygenase, duplicate, read-out: IC50 5-LOX
[3] = enzyme immunoassay, average of three experiments, read-out: IC50 COX-1

SMILES	IC50 [1, 2]	IC50 (COX-1; [3])	IC50 [1]	IC50 (COX-1)
O=C1Nc2ccccc2C1=Cc1cn(C[C@H](O)Cn2c3ccccc3c(=O)c3ccccc32)c2ccccc12 [(S)-3c]	500 ± 28 nM	60000 ± 3000 nM		
O=C1NC(=O)C(=Cc2cn(CCCn3c4ccccc4c(=O)c4ccccc43)c3ccccc23)C(=O)N1 [Compound 4a]			200 ± 10 nM	30000 ± 1800 nM
O=C1Nc2ccccc2C1=Cc1cn(CCCn2c3ccccc3c(=O)c3ccccc32)c2ccccc12 [Compound 4c]	100 ± 80 nM	4000 ± 320 nM		

Reference: article PMC6030096, “Synergy of Physico-chemical and Biological Experiments for Developing a Cyclooxygenase-2 Inhibitor” (Scientific Reports, 2018)
